This passage reports IC50 and inhibition in vivo results from patent US7166597B2, “Fused pyrazole derivatives being protein kinase inhibitors” (Glaxo Group Limited, priority 2000, dated 2007).

One assay has as its target T1, p38 kinase (Homo sapiens, UniProt Q16539).
T1 construct: GST (N); made in house; host or cells: E. coli
Put plainly: p38 Kinase Assay. It is filed as biochemical. The protocol: The peptide substrate used in the p38 assay was biotin-IPTSPITTTYFFFRRR-amide. The p38 and MEK6 proteins were purified to homogeneity from E. coli expression systems. The fusion proteins were tagged at the N-terminus with Glutathione-S-Transferase (GST). The maximum activation was achieved by incubating 20 uL of a reaction mixture of 30 nM MEK6 protein and 120 nM p38 protein in the presence of 1.5 uM peptide and 10 mM Mg (CH3CO2)2 in 100 mM HEPES7 pH 7.5, added to 15 uL of a mixture of 1.5 uM ATP with 0.08 uCi [g-^33P]ATP, with or without 15 uL of inhibitor in 6% DMSO. The controls were reactions in the presence (negative controls) or absence (positive controls) of 50 mM EDTA. Reactions were allowed to proceed for 60 min at room temperature and quenched with addition of 50 uL of 250 mM EDTA and mixed with 150 uL of Streptavidin SPA beads (Amersham) to 0.5 mg/reaction. The Dynatech Microfluor white U-bottom plates were sealed and the beads were allowed to settle overnight. The plates were counted in a Packard TopCount for 60 seconds. IC50 values were obtained by fitting raw data to % I=100*(1−(I−C2)/(C1−C2)), where I was […], C1 was positive control, and C2 was negative control.

In assay [1] the test system is TNF release from human peripheral blood mononuclear cells (PBMNC). Put plainly: Cell Based Assay for Cytokines Production in PBMNC (TNF release after LPS). To be noted: PBMC, read-out: TNF/PBMNC (inhibition of TNF release from human PBMNC following stimulation with LPS, IC50). The protocol: Cell Based Assay for Cytokines Production in PBMNC
Human peripheral blood mononuclear cells were isolated from heparinized blood by LSM (Organon Teknika) from volunteer donors. Purified human peripheral blood mononuclear cells were then suspended at a concentration of 2×10^6 cells/ml in RPMI 1640 medium supplemented with 10% heat-inactivated FBS and 1% antibiotics. Aliquots of 100 μl (2×10^5 cells) were added to 96-well microliter plates. Test compounds at […] dose ranges (final-DMSO concentration in culture medium was 0.1%) were then added to the cells for 10–15 minutes before the addition of lipopolysaccharide (1 ng/ml). After incubation at 37° C. in a 5% CO2 incubator for 18–20 h, cell free supernatants were collected by centrifugation at 800 g. The supernatant was then assayed for the amount of TNFα and IL-1β by using Quantikine immunoassay kits developed by R&D Systems (Minneapolis, Minn.).

Assay [2] concerns serum TNFα elevation in mice treated with lipopolysaccharide (LPS). Put plainly: Murine LPS-Stimulated Serum TNF Inhibition. The class given is in vivo. To be noted: Mus musculus, 1.5 h, dose 30 mpk, read-out: % inh. (dose): % inhibition of murine TNF production in mice following an LPS challenge. The protocol:
Murine LPS—Stimulated Serum TNF Inhibition Protocol
The potency of compounds of the invention as inhibitors of serum TNFα elevation in mice treated with lipopolysaccharide (LPS) was determined as follows; a) for subcutaneous (s.c.) administration, test compound was dissolved in DMSO and added to a mixture of 0.9% sodium chloride solution and 30% Trappsol HPB-20 (Cyclodextrin Technology Development Inc., Gainesville, Fla. USA) for a final DMSO concentration of 1%. The dosing solution was sonicated briefly and 0.2 mL was injected subcutaneously 10 min prior to LPS injection; b) for per oral (p.o.) administration, test compounds were formulated in 0.2 mL of PBS and 0.1% Tween 80 and given orally via gavage 10 min prior to LPS administration.
C3/hen female mice were injected intraperitoneally with 200 μg/kg LPS (Escherichia coil, Serotype 0111:B4, Sigma Chemical Co, St. Louis, Mo.) in PBS and sacrificed 90 min later by CO2 asphyxiation. Blood was immediately taken from the caudal vena cava and plasma prepared and frozen at −80° C. Plasma concentrations of TNF were measured by ELISA (Genzyme Co., Cambridge Mass.).

Assay [3] addresses T2, JNK3 kinase (Jnk-3alpha-2) (Homo sapiens, UniProt P53779).
T2 construct: Jnk-3alpha-2 (as a truncated construct, residues 39 to 224) was expressed in E. coli as a GST fusion protein; Following purification the GST portion was removed by thrombin cleavage; fused on or other part: An N-terminal GST tag was used for expression and removed by thrombin cleavage before the assay
Kind of assay: JNK3 Kinase Assay. To be noted: Table 8; read-out: JNK3 kinase (inhibition of JNK3 kinase, IC50). The class given is biochemical. The protocol: JNK3 Kinase Assay Jnk-3alpha-2 (as a truncated construct, residues 39 to 224) was expressed in E. coli as a GST fusion protein. Following purification the GST portion was removed by thrombin cleavage. The enzyme was stored at −80° C. Substrate c-Jun was expressed as a GST fusion protein including a signal peptide (biotinylation site) in E. coli. Following purification the substrate was biotinylated on a specific lysine in the signal peptide using biotin ligase. Prior to assay Jnk-3 was pre-activated by incubation with MgATP. The enzyme (10 nM) was screened in 40 mM HEPES (pH 7.4), 150 mM NaCl, 20 mM glycerophosphate, 1 mM DTT, 0.2 mM vanadate, 200 nM biotin-c-Jun, 5 mM MgCl2 and 10 uM ATP. Inhibitors were added over a conc range of from 0 to 10 uM in DMSO (fc 3%). The reaction was stopped by the addition of 25 mM EDTA. Phospho-c-Jun was detected using homogeneous time resolved fluorescence (HTRF) with a Eu-labelled antiphosphoserine (Serine 73) and streptavidin APC.

The mark [4] stands for this setting: Table 7, compounds wherein Z is CH, read-out: P38 kinase (inhibition of p38 kinase, IC50).
Where [5] appears, read: Table 8, compounds wherein Z is N, read-out: p38 kinase (inhibition of p38 kinase, IC50).

The structures appear in SMILES notation. Where two headings read alike, the source gives them in different places.

T1 sequence (Q16539 whole entry): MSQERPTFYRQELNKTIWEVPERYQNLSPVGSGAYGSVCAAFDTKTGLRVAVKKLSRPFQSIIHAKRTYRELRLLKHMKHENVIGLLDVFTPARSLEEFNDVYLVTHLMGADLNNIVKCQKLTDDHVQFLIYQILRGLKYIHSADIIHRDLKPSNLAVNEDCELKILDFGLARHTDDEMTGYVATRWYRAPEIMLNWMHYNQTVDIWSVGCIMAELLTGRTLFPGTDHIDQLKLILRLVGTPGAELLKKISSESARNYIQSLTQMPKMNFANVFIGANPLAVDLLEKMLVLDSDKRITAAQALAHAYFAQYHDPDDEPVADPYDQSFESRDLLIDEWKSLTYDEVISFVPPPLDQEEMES
T2 sequence (P53779 39-402 limits assumed): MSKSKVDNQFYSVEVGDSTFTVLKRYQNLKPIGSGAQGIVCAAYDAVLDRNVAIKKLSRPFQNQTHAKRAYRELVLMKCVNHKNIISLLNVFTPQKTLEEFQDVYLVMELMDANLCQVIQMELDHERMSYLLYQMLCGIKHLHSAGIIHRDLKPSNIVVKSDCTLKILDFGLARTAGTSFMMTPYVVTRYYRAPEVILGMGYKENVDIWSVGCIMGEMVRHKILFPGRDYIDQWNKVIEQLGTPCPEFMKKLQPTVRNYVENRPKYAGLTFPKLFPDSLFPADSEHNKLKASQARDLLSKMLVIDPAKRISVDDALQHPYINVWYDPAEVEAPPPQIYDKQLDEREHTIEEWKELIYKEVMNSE

`COc1ccn2nc(-c3ccc(F)cc3)c(-c3ccncc3)c2c1` [Example 5, 2-(4-Fluorophenyl)-5-methoxy-3-(4-pyridinyl)pyrazolo[1,5-a]pyridine]: the IC50 at p38 kinase (setting [4]) lay in the range of 500 to 5000 nM; in assay [1] (Table 7, LPS stimulation) it was 500 to 5000 nM. Further, the inhibition in vivo at 30 mg/kg in assay [2] (Table 7, LPS challenge) was 11%.

On to `Fc1ccc(-c2nn3cc(C(F)(F)F)ccc3c2-c2ccncc2)cc1` [Example 23, 2-(4-Fluorophenyl)-3-(4-pyridinyl)-6-(trifluoromethyl)pyrazolo[1,5-a]pyridine], for which the IC50 on p38 kinase (setting [4]) is < 500 nM; in assay [1] (Table 7, LPS stimulation), < 500 nM.

As for `Fc1ccc(-c2nn3ccccc3c2-c2ccnc(NCc3ccc(Cl)cc3)c2)cc1` [Example 31, N-(4-Chlorobenzyl)-4-[2-(4-fluorophenyl)pyrazolo[1,5-a]pyridin-3-yl]-2-pyridinamine], the IC50 in assay [1] (Table 7, LPS stimulation) was < 500 nM. The inhibition in vivo at 30 mg/kg in assay [2] (Table 7, LPS challenge) came to 42%.

Turning to `CSc1nccc(-c2c(-c3ccc(F)cc3)nn3ccccc23)n1` [Example 57, 2-(4-Fluorophenyl)-3-(4-(2-methylthio)pyrimidinyl)pyrazolo[1,5-a]-pyridine], the IC50 on p38 kinase (setting [5]) was < 500 nM; in assay [1] (Table 8, LPS stimulation), < 500 nM. Also, the inhibition in vivo at 30 mg/kg in assay [2] (Table 8, LPS challenge) was 56%.

On to `CCCCNc1nccc(-c2c(-c3ccc(F)cc3)nn3ccccc23)n1` [Example 60, N-Butyl-4-[2-(4-fluorophenyl)pyrazolo[1,5-a]pyridin-3-yl]-2-pyrimidin-amine], for which the IC50 at p38 kinase (setting [5]) is < 500 nM; in assay [1] (Table 8, LPS stimulation), < 500 nM. Also, in assay [2] (Table 8, LPS challenge), the inhibition in vivo at 30 mg/kg is 88%.

Turning to `Nc1nccc(-c2c(-c3ccc(F)cc3)nn3ccccc23)n1` [Example 64, 4-[2-(4-Fluorophenyl)pyrazolo[1,5-a]pyridin-3-yl]-2-pyrimidinamine], the IC50 at p38 kinase (setting [5]) is < 500 nM; in assay [1] (Table 8, LPS stimulation) it was < 500 nM. Moreover, the inhibition in vivo at 30 mg/kg in assay [2] (Table 8, LPS challenge) was 62%.

As for `Fc1ccc(-c2nn3cc(C(F)(F)F)ccc3c2-c2ccnc(NC3CC3)n2)cc1` [Example 68, N-Cyclopropyl-4-[2-(4-fluorophenyl)-6-trifluoromethylpyrazolo[1,5-a]pyridin-3-yl]-2-pyrimidinamine], the IC50 is < 500 nM on p38 kinase (setting [5]); < 500 nM in assay [3]; < 500 nM in assay [1] (Table 8, LPS stimulation). For the same compound, in assay [2] (Table 8, LPS challenge), the inhibition in vivo at 30 mg/kg amounted to 24%.

As to `CC(C)Nc1nccc(-c2c(-c3ccc(F)cc3)nn3cc(C(F)(F)F)ccc23)n1` [Example 69, 4-[2-(4-Fluorophenyl)-6-trifluoromethylpyrazolo[1,5-a]pyridin-3-yl]-N-(2-propyl)-2-pyrimidinamine], the IC50 is < 500 nM on p38 kinase (setting [5]) and < 500 nM in assay [1] (Table 8, LPS stimulation). Moreover, the inhibition in vivo at 30 mg/kg in assay [2] (Table 8, LPS challenge) was 45%.

With `N#Cc1ccc2c(-c3ccnc(NC4CC4)n3)c(-c3ccc(F)cc3)nn2c1` [Example 73, N-Cyclopropyl-4-[6-cyano-2-(4-fluorophenyl)pyrazolo[1,5-a]pyridin-3-yl]-2-pyrimidinamine], the IC50 on p38 kinase (setting [5]) was < 500 nM; in assay [3] it was < 500 nM; in assay [1] (Table 8, LPS stimulation) it was < 500 nM. The inhibition in vivo at 30 mg/kg in assay [2] (Table 8, LPS challenge) amounted to 52%.

For the compound `NC(=O)c1ccc2c(-c3ccnc(NC4CC4)n3)c(-c3ccc(F)cc3)nn2c1` [Example 75, 2-(4-Fluorophenyl)-3-(4-(2-cyclopropylamino)pyrimidinyl)-6-pyrazolo-[1,5-a]pyridinylcarboxamide], the IC50 in assay [3] is < 500 nM; in assay [1] (Table 8, LPS stimulation), < 500 nM. Further, the inhibition in vivo at 30 mg/kg in assay [2] (Table 8, LPS challenge) stood at 90%.

Regarding `Fc1ccc(-c2nn3ccccc3c2-c2ccnc(NCCc3cnc[nH]3)n2)cc1` [Example 80, 4-[2-(4-Fluorophenyl)pyrazolo[1,5-a]pyridin-3-yl]-N-[2-(1H-imidazol-5-yl)ethyl]-2-pyrimidinamine], the IC50 at p38 kinase (setting [5]) was < 500 nM; in assay [1] (Table 8, LPS stimulation), < 500 nM.

Consider `Fc1ccc(-c2nn3ccccc3c2-c2ccnc(NCc3ccccn3)n2)cc1` [Example 82, 4-[2-(4-Fluorophenyl)pyrazolo[1,5-a]pyridin-3-yl]-N-(2-pyridinylmethyl)-2-pyrimidinamine], for which the IC50 was < 500 nM on p38 kinase (setting [5]) and < 500 nM in assay [1] (Table 8, LPS stimulation). In addition, the inhibition in vivo at 30 mg/kg in assay [2] (Table 8, LPS challenge) amounted to 87%.
